Data on 15 molecules can be found in publication PMC10490123, “Synthesis and In Vitro Anticancer Activity of Novel 4-Aryl-3-(4-methoxyphenyl)-1-phenyl-1H-pyrazolo[3,4-b]pyridines Arrest Cell Cycle and Induce Cell Apoptosis by Inhibiting CDK2 and/or CDK9” (Molecules, 2023).

Molecules are shown by their SMILES.

In one data set the test system is Hela cancer cell line. The data set is described as follows: MTT cytotoxicity assay, cervical cancer Hela. Type of data set: cell-based. The note with it: Homo sapiens, mean ± SD of three experiments. How it is done:
(§1) The cytotoxicity of compounds 9a–h and 14a–h against three cell lines, namely, cervical cancer Hela, breast cancer MCF7, and colon HCT-116, compared with doxorubicin as a reference compound was performed using MTT assay. The cytotoxic concentration (IC50 in µM) is illustrated in Table 1.
(§2) Standard MTT colorimetric assay was applied to test the IC50 of compounds 9a–h and 14a–h against three cell lines, namely, cervical cancer Hela, breast cancer MCF7, and colon HCT-116, compared with doxorubicin as a reference compound with the typical reported methodology of MTT colorimetric assay.

For the next data set, the system named is HCT-116 cancer cell line. The data set is described as follows: MTT cytotoxicity assay, colon HCT-116. Type of data set: cell-based. The following applies: Homo sapiens, mean ± SD of three experiments, read-out: IC50 HCT116. The procedure:
as §1, §2

Another data set has as its system MCF7 cancer cell line. The data set is described as follows: MTT cytotoxicity assay, breast cancer MCF7. Type of data set: cell-based. The following applies: Homo sapiens, mean ± SD of three experiments. The procedure:
as §1, §2
On the technique in general: Tetrazolium dyes change colour on reduction, which living cells bring about.

Data set [1] can be described thus: MTT cytotoxicity on normal cell line WI-38. Type of data set: cell-based. The note with it: human, WI-38 normal cells, MTT assay, mean ± SD of three experiments, read-out: In Vitro Cytotoxicity on WI-38 (IC50).

For `COc1ccc(-c2nn(-c3ccccc3)c3nc(-c4ccccc4)c(C#N)c(-c4ccc(Br)cc4)c23)cc1` [Compound 14e, 4-(4-Bromophenyl)-3-(4-methoxyphenyl)-1,6-diphenyl-1H-pyrazolo[3,4-b]pyridine-5-carbonitrile], the melting point (as a rule, the temperature, or range, at which the solid turns liquid) was 221 to 223 °C. The IC50 – broadly, the concentration at which inhibition is half-maximal – in the data set on Hela cancer cell line turned out to be 37.3 ± 3.32 µM. The IC50 in the data set on HCT-116 cancer cell line stood at 37.8 ± 2.63 µM. In the data set on MCF7 cancer cell line, this molecule displayed an IC50 of 34.4 ± 2.59 µM.

Regarding `COc1ccc(-c2nn(-c3ccccc3)c3nccc(-c4ccc(Br)cc4)c23)cc1` [Compound 9f, 4-(4-Bromophenyl)-3-(4-methoxyphenyl)-1-phenyl-1H-pyrazolo[3,4-b]pyridine], the melting point was in the range of 217 to 219 °C. In addition, the half-maximal inhibitory concentration (IC50) in the data set with Hela cancer cell line turned out to be 20.4 ± 1.74 µM. Moreover, the IC50 in the data set with HCT-116 cancer cell line came out at 16.8 ± 0.76 µM. This molecule had an IC50 in the data set with MCF7 cancer cell line of 35.6 ± 4.64 µM.

With `COc1ccc(-c2nn(-c3ccccc3)c3nc(-c4ccccc4)c(C#N)c(-c4ccc(Cl)cc4)c23)cc1` [Compound 14d, 4-(4-Chlorophenyl)-3-(4-methoxyphenyl)-1,6-diphenyl-1H-pyrazolo[3,4-b]pyridine-5-carbonitrile], the melting point was 258 to 260 °C. This molecule gave an IC50 with Hela cancer cell line of 21.1 ± 2.03 µM. In addition, in the data set on HCT-116 cancer cell line, the IC50 worked out at 31.1 ± 3.54 µM. This molecule also came in with a half-inhibitory concentration (IC50) in the data set with MCF7 cancer cell line of 37.2 ± 2.48 µM.

`COc1ccc(-c2ccnc3c2c(-c2ccc(OC)cc2)nn3-c2ccccc2)cc1` [Compound 9c, 3,4-Bis(4-methoxyphenyl)-1-phenyl-1H-pyrazolo[3,4-b]pyridine] returned a melting point of 198 to 200 °C. Moreover, in the data set with Hela cancer cell line, the IC50 came to 26.6 ± 3.37 µM. For the same molecule, the IC50 in the data set with HCT-116 cancer cell line was 43.2 ± 3.26 µM. The molecule further came in with an IC50 with MCF7 cancer cell line of 59 ± 5.52 µM.

In the case of `COc1ccc(-c2nn(-c3ccccc3)c3nc(-c4ccccc4)c(C#N)c(-c4ccc(N(C)C)cc4)c23)cc1` [Compound 14f, 4-(4-(Dimethylamino)phenyl)-3-(4-methoxyphenyl)-1,6-diphenyl-1H-pyrazolo[3,4-b]pyridine-5-carbonitrile], the melting point fell in the range of 230 to 232 °C. The molecule also gave an IC50 in the data set with Hela cancer cell line of 46.1 ± 3.7 µM. The IC50 in the data set on HCT-116 cancer cell line is 40 ± 4.32 µM. The molecule further came in with an IC50 in the data set on MCF7 cancer cell line of 19.6 ± 1.26 µM.

The molecule `COc1ccc(-c2nn(-c3ccccc3)c3nc(-c4ccccc4)c(C#N)c(-c4ccc(OC)c(OC)c4)c23)cc1` [Compound 14h, 4-(3,4-Dimethoxyphenyl)-3-(4-methoxyphenyl)-1,6-diphenyl-1H-pyrazolo[3,4-b]pyridine-5-carbonitrile] showed a melting point of 212 to 214 °C. The half-inhibitory concentration (IC50) with Hela cancer cell line stood at 31.7 ± 2.48 µM. For the same molecule, in the data set with HCT-116 cancer cell line, the IC50 was 3.69 ± 0.11 µM. In the data set with MCF7 cancer cell line, the IC50 turned out to be 38.1 ± 2.76 µM.

`COc1ccc(-c2nn(-c3ccccc3)c3nc(-c4ccccc4)c(C#N)c(-c4ccc(C)cc4)c23)cc1` [Compound 14b, 3-(4-Methoxyphenyl)-1,6-diphenyl-4-(p-tolyl)-1H-pyrazolo[3,4-b]pyridine-5-carbonitrile] showed a melting point of 203 to 205 °C. In the data set on Hela cancer cell line, this molecule gave an IC50 of 21 ± 2.18 µM. Moreover, the IC50 in the data set with HCT-116 cancer cell line was 36.3 ± 1.83 µM. The molecule further displayed an IC50 in the data set on MCF7 cancer cell line of 21.4 ± 2.05 µM.

The molecule `COc1ccc(-c2nn(-c3ccccc3)c3nccc(-c4ccc(Cl)cc4)c23)cc1` [Compound 9e, 4-(4-Chlorophenyl)-3-(4-methoxyphenyl)-1-phenyl-1H-pyrazolo[3,4-b]pyridine] registered a melting point of 210 to 212 °C. Besides, the IC50 with Hela cancer cell line was determined as 48.5 ± 4.2 µM. In the data set on HCT-116 cancer cell line, the IC50 is 16.6 ± 1.34 µM. The molecule also gave an IC50 in the data set on MCF7 cancer cell line of 20.3 ± 3.21 µM.

Consider `COc1ccc(-c2nn(-c3ccccc3)c3nccc(-c4ccc([N+](=O)[O-])cc4)c23)cc1` [Compound 9g, 3-(4-Methoxyphenyl)-4-(4-nitrophenyl)-1-phenyl-1H-pyrazolo[3,4-b]pyridine], for which the melting point was more than 300 °C. The molecule also had an IC50 in the data set with Hela cancer cell line of 28.3 ± 4.23 µM. Further, in the data set on HCT-116 cancer cell line, the IC50 was 40 ± 3.19 µM. Also, in the data set on MCF7 cancer cell line, it took 26.3 ± 2.85 µM to reach half-maximal inhibition (IC50).

As for `COc1ccc(-c2nn(-c3ccccc3)c3nccc(-c4ccc(OC)c(OC)c4)c23)cc1` [Compound 9h, 4-(3,4-Dimethoxyphenyl)-3-(4-methoxyphenyl)-1-phenyl-1H-pyrazolo[3,4-b]pyridine], the melting point lay in the range of 165 to 167 °C. Further, half-maximal inhibition in the data set with Hela cancer cell line (IC50) required 7.92 ± 1.11 µM. Besides, the IC50 in the data set on HCT-116 cancer cell line is 9.69 ± 0.56 µM. Inhibition with MCF7 cancer cell line was half-maximal at 9.7 ± 1 µM (IC50).

As to `COc1ccc(-c2nn(-c3ccccc3)c3nc(-c4ccccc4)c(C#N)c(-c4ccccc4)c23)cc1` [Compound 14a, 3-(4-Methoxyphenyl)-1,4,6-triphenyl-1H-pyrazolo[3,4-b]pyridine-5-carbonitrile], the melting point is 229 to 231 °C. This molecule had an IC50 in the data set with Hela cancer cell line of 23.1 ± 1.63 µM. Besides, in the data set on HCT-116 cancer cell line, the IC50 came out at 25.8 ± 2.58 µM. In the data set with MCF7 cancer cell line, this molecule returned an IC50 of 20.7 ± 1.73 µM.

Molecule `COc1ccc(-c2nn(-c3ccccc3)c3nc(-c4ccccc4)c(C#N)c(-c4ccc(OC)cc4)c23)cc1` [Compound 14c, 3,4-Bis(4-methoxyphenyl)-1,6-diphenyl-1H-pyrazolo[3,4-b]pyridine-5-carbonitrile] registered a melting point of 207 to 209 °C. For the same molecule, in the data set with Hela cancer cell line, the midpoint of inhibition, the IC50, lay at 41.3 ± 2.79 µM. In addition, the IC50 with HCT-116 cancer cell line was 36.7 ± 2.02 µM. Also, it took 39.3 ± 3.74 µM to reach half-maximal inhibition in the data set on MCF7 cancer cell line (IC50).

Molecule `COc1ccc(-c2nn(-c3ccccc3)c3nccc(-c4ccc(F)cc4)c23)cc1` [Compound 9d, 4-(4-Fluorophenyl)-3-(4-methoxyphenyl)-1-phenyl-1H-pyrazolo[3,4-b]pyridine] came in with a melting point of 171 to 173 °C. This molecule yielded an IC50 in the data set with Hela cancer cell line of 19.6 ± 1.68 µM. In addition, the IC50 in the data set with HCT-116 cancer cell line worked out at 17.5 ± 0.98 µM. Further, the IC50 in the data set with MCF7 cancer cell line was 13 ± 1.33 µM.

Turning to `COc1cccc2c1C(=O)c1c(O)c3c(c(O)c1C2=O)C[C@@](O)(C(=O)CO)C[C@@H]3O[C@H]1C[C@H](N)[C@H](O)[C@H](C)O1` [Doxorubicin, reference compound], the IC50 was found to be 2.35 ± 0.08 µM in the data set with Hela cancer cell line, 2.11 ± 0.2 µM with HCT-116 cancer cell line, 4.57 ± 0.28 µM in the data set with MCF7 cancer cell line and 15.6 ± 0.37 µM in data set [1].

For `COc1ccc(-c2nn(-c3ccccc3)c3nccc(-c4ccc(C)cc4)c23)cc1` [Compound 9b, 3-(4-Methoxyphenyl)-1-phenyl-4-(p-tolyl)-1H-pyrazolo[3,4-b]pyridine], the melting point lay in the range of 186 to 188 °C. Also, the midpoint of inhibition in the data set on Hela cancer cell line, the IC50, lay at 14 ± 1.25 µM. The IC50 with HCT-116 cancer cell line came out at 18 ± 1.16 µM. This molecule also came in with an IC50 with MCF7 cancer cell line of 22.4 ± 3.18 µM.
